Residue numbers refer to the chain shown, from its start. Active and inactive are the calls of the source. The rule behind the calls is not given here. Positions of bridges follow the written chain, without caps; N, C: chain ends. Residues, ends and D or L forms follow the SMILES beside them.
Tests used:
[1] = target: T1, Melanoma-associated antigen 4 (Homo sapiens, UniProt P43358); experiment: Binding affinity to recombinant N-terminal His-tagged MAGEA4-MH domain (unknown origin) expressed in Escherichia coli BL21-(DE3) by isothermal titration calorimetry
T1 sequence (P43358 whole entry): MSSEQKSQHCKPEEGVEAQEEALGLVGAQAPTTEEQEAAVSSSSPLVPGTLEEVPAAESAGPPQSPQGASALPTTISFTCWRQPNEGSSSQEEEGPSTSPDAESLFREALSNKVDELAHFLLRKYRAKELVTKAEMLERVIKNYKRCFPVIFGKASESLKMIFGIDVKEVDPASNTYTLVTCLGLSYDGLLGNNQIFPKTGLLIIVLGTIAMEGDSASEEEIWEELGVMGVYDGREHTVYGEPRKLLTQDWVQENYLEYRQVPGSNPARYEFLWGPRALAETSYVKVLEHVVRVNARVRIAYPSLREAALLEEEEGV

[2] = system: NCI-H1299; experiment: Inhibition of MAGEA4 in human NCI-H1299 cell lysate interaction with HA-tagged RAD18 (unknown origin) at 20 nM incubated for overnight by co-immunoprecipitation pull down assay; assay type: subcellular
[3] = system: NCI-H1299; experiment: Inhibition of MAGEA4 in human NCI-H1299 cell lysate interaction with HA-tagged RAD18 (unknown origin) at 1 uM incubated for overnight by co-immunoprecipitation pull down assay; assay type: subcellular
[4] = target: T2, Melanoma-associated antigen 4 (Homo sapiens) (UniProt P43358); experiment: Binding affinity to recombinant N-terminal His-tagged MAGEA4-MH domain (unknown origin) expressed in Escherichia coli BL21-(DE3) assessed as protection in trypsin-induced MAGEA4 protein degradation incubated for 1 hr by proteolysis based SDS-PAGE analysis
T2 sequence (whole entry): T1 sequence (P43358 whole entry)

[5] = system: T3, Melanoma-associated antigen 4 (Homo sapiens), P43358 [I205A]; experiment: Binding affinity to recombinant N-terminal His-tagged MAGEA4-MH domain I205A mutant (unknown origin) expressed in Escherichia coli BL21-(DE3) assessed as increase in thermal stability by SYPRO orange dye based differential scanning fluorimetry; conditions: dose <= 10.0 µM
T3 sequence (whole entry): T1 sequence (P43358 whole entry) with I205A

[6] = system: T4, Melanoma-associated antigen 4 (Homo sapiens), P43358 [V294A]; experiment: Binding affinity to recombinant N-terminal His-tagged MAGEA4-MH domain V294A mutant (unknown origin) expressed in Escherichia coli BL21-(DE3) assessed as increase in thermal stability by SYPRO orange dye based differential scanning fluorimetry; conditions: dose <= 10.0 µM
T4 sequence (whole entry): T1 sequence (P43358 whole entry) with V294A

[7] = system: T5, Melanoma-associated antigen 4 (Homo sapiens), P43358 [R299A]; experiment: Binding affinity to recombinant N-terminal His-tagged MAGEA4-MH domain R299A mutant (unknown origin) expressed in Escherichia coli BL21-(DE3) assessed as increase in thermal stability by SYPRO orange dye based differential scanning fluorimetry; conditions: dose <= 10.0 µM
T5 sequence (whole entry): T1 sequence (P43358 whole entry) with R299A

[8] = system: T6, Melanoma-associated antigen 4 (Homo sapiens), P43358 [D115R]; experiment: Binding affinity to recombinant N-terminal His-tagged MAGEA4-MH domain D115R mutant (unknown origin) expressed in Escherichia coli BL21-(DE3) assessed as increase in thermal stability by SYPRO orange dye based differential scanning fluorimetry; conditions: dose <= 10.0 µM
T6 sequence (whole entry): T1 sequence (P43358 whole entry) with D115R

[9] = organism: Homo sapiens; experiment: Inhibition of Eu-W1024 streptavidin-labeled 6 xHis-tagged MAGEA4-MH domain I205A mutant (unknown origin) expressed in Escherichia coli BL21-(DE3) interaction with Ulight-labeled GST-tagged RAD18 (unknown origin) (267 to 402 residues) at 1 uM by LANCE TR-FRET assay
[10] = Inhibition of Eu-W1024 streptavidin-labeled 6 xHis-tagged MAGEA4-MH domain (unknown origin) expressed in Escherichia coli BL21-(DE3)/GST-tagged RAD18 (unknown origin) (267 to 402 residues) interaction using Ulight-anti-GST antibody incubated for 30 to 60 mins by LANCE TR-FRET assay; parameters: species or system Homo sapiens

Kd [1]: 9.7 nM
inhibition [2]: Active
inhibition [3]: Active
Activity [4]: Active
Tm [5]: < 3.5 °C
Tm [6]: < 3.5 °C
Tm [7]: < 3.5 °C
Tm [8]: < 3.5 °C
inhibition [9]: Active
IC50 [10]: 3.65 nM
SMILES: CC[C@H](C)[C@@H]1NC(=O)[C@H](Cc2ccc(O)cc2)NC(=O)CSC[C@@H](C(N)=O)NC(=O)[C@H](CC(N)=O)NC(=O)[C@H](Cc2cnc[nH]2)NC(=O)[C@H](Cc2ccc(O)cc2)NC(=O)[C@H](CC(=O)O)NC(=O)[C@H](Cc2ccc(O)cc2)NC(=O)[C@H](CC(C)C)NC(=O)[C@H](CCCNC(=N)N)NC1=O ({CH2CO}-YIRLYDYHNC-NH2; thioether N-10)

Source: ChEMBL document CHEMBL5154904, “Discovery and Structural Basis of the Selectivity of Potent Cyclic Peptide Inhibitors of MAGE-A4” (J Med Chem, 2022)
